Data published in patent publication US10888089B2, “Methods and compositions for controlling fungus-growing ants” (UNIVERSITE PARIS EST CRETEIL VAL DE MARNE, priority 2016, dated 2021).

Legend:
Streptomyces (NA 2B3) = test: Antibacterial activity using discs in Petri dishes, strain Streptomyces NA2B3; assay type: cell-based
Protocol: (§1) The general principle is to test in solid medium the culture of the strain in the presence of a paper disc impregnated with the molecule to be tested. For each molecule tested at least three dilutions were prepared. In the presence of a molecule, a halo, the diameter of which is related to the intensity of the inhibitory effect, appears around the paper disc. This approach provides a simple way to select antibacterial molecules and to determine the minimum inhibitory concentration (MIC) of bacterial growth.
(§2) Antibacterial activity can be measured in liquid medium (in a liquid bacterial culture) or in solid medium (on an agar Petri dish) by adding a known concentration of antibiotic. In liquid medium, inhibition is measured by an optical density (OD); in solid medium, growth inhibition is estimated by the diameter of the halo corresponding to the zone where no growth is observed.
(§3) From the isolates, a sample is taken. This is suspended in 1 mL of physiological saline solution without measuring OD.
(§4) Inoculation is performed with 100 μL of suspension using a spreader. For undiluted essential oil tests, a disc soaked in essential oil is placed in the centre of the dish. For dilutions (½; ⅕), both discs are placed in the same dish. Dilutions were prepared by diluting the essential oils in sunflower oil. A control dish was prepared and consists of an inoculate in the absence of essential oil. A second control, this time with a disc impregnated with sunflower oil, was also prepared to confirm the absence of an effect. All products were sterilised and the experiments were performed under a hood in sterile conditions.
(§5) After 4 days of growth, the inhibition diameters were measured.

[1] = system: 5 actinomycete strains isolated from fungus-growing ants; test: Antibacterial activity using discs in Petri dishes, average of 5 actinomycete strains; assay type: cell-based, Streptomyces, Tsukumurella and Gordonia
Protocol: as §1, §2, §3, §4, §5
This step made it possible to isolate, from ants belonging to the species Acromyrmex octospinosus, 15 actinomycete strains including 12 belonging to the genus Tsukumurella, two to the genus Streptomyces and one to the genus Gordonia. In total, 5 strains belonging to the genera Streptomyces, Tsukumurella and Gordonia were selected for the analysis of antibacterial substances.

[2] = system: laccase activity of Acromyrmex octospinosus and of Leucophorus gongylophorus; test: Laccase inhibition (ABTS), ant and fungus garden samples together; assay type: biochemical; settings: for anti-laccase activity (in words): data not shown
Protocol: Crushing was performed in mortars placed on ice, using pestles. Ants (2 g) and fungus garden (2 g) were crushed in 10 mL of distilled water refrigerated at 4° C. After obtaining crushed matter of homogeneous texture, the whole was centrifuged. Centrifugation was performed at 4° C., 15,000 rpm for 20 min.
For protein precipitation, the supernatant was 80% saturated with ammonium sulphate ((NH4)2SO4). After total dissolution of the ammonium sulphate, the solution obtained is placed at 4° C. for 12 hours. The solution was then centrifuged at a temperature of 4° C., at 15,000 rpm, for 20 min. The pellet obtained is redissolved in a minimum of cold distilled water and then dialysed against 5 litres of distilled water at 4° C. for 12 hours. The extract thus obtained constitutes the crude enzyme extract. These extracts were aliquoted and then stored at −20° C.
Laccase activity was evaluated using 2,2′-azino-bis(3-ethylbenzthiazoline-6-sulphonic acid) (ABTS) as oxidation control substrate. Briefly, ABTS is diluted to 27.4 mg/L in Mcllvain buffer solution (pH 5.2). 150 μL of ABTS solution is incubated with 100 μL of test solution and then incubated for 30 min at 37° C. The measurement of OD at 405 nm is used to determine the amount of oxidised ABTS using Beer-Lambert's law (epsilon=36,000 mM).
The determination of laccase activity is based on a colorimetric method where the substrate ABTS (2,2′-azino-bis(3-ethylbenzthiazoline-6-sulphonic acid) in reduced form (colourless) is oxidised (green colour) in the presence of the enzyme. The method was published by Bourbonnais et al. in 1990 (Oxidation of non-phenolic substrates. An expanded role for laccase in lignin biodegradation. FEBS, 1990, 267, 99-102). To test the inhibition of laccase activity, the molecule tested is added to the reaction mixture in amounts ranging from 0.1 mM to 100 mM. The inhibitors selected for analysis are compounds having antioxidant capacity.

laccase [3] = test: Laccase inhibition (ABTS colorimetric method), ant sample; assay type: biochemical; settings: anti-laccase activity, ABTS substrate, read-out: IC50 Acromyrmex octospinosus
Protocol: (§6) Crushing was performed in mortars placed on ice, using pestles. […] After obtaining crushed matter of homogeneous texture, the whole was centrifuged. Centrifugation was performed at 4° C., 15,000 rpm for 20 min. For protein precipitation, the supernatant was 80% saturated with ammonium sulphate ((NH4)2SO4). After total dissolution of the ammonium sulphate, the solution obtained is placed at 4° C. for 12 hours. The solution was then centrifuged at a temperature of 4° C., at 15,000 rpm, for 20 min. The pellet obtained is redissolved in a minimum of cold distilled water and then dialysed against 5 litres of distilled water at 4° C. for 12 hours. The extract thus obtained constitutes the crude enzyme extract. These extracts were aliquoted and then stored at -20° C. […] Briefly, ABTS is diluted to 27.4 mg/L in […] buffer solution (pH 5.2). 150 μL of ABTS solution is incubated with 100 μL of test solution and then incubated for 30 min at 37° C. The measurement of OD at 405 nm is used to determine the amount of oxidised ABTS using Beer-Lambert's law (epsilon=36,000 mM). […] The method was published by Bourbonnais et al. in 1990 (Oxidation of non-phenolic substrates. An expanded role for laccase in lignin biodegradation. FEBS, 1990, 267, 99-102). […] The inhibitors selected for analysis are compounds having antioxidant capacity.

laccase [4] = test: Laccase inhibition (ABTS colorimetric method), fungus garden sample; assay type: biochemical; settings: anti-laccase activity, ABTS substrate, read-out: IC50 Leucophorus gongylophorus
Protocol: as §6

Row | IC50 (laccase [3]) | IC50 (laccase [4]) | Compound | inhibition diameter (Streptomyces (NA 2B3); Table 5, 20%) | Average inhibition diameters ([1]; Table 6, 20%) | also measured
1 |  |  | O=CC=Cc1ccccc1 [Cinnamaldehyde] | 3.0 ± 1.5 cm | 4.5 ± 0.6 | Average inhibition diameters ([1]; Table 6, 10%): 2.9 ± 0.6
2 |  |  | Cc1ccc(C(C)C)c(O)c1 [Thymol] | 1.7 ± 0.8 cm | 2.2 ± 0.3 | anti-laccase activity (in words) [2]: anti-laccase activity was observed
3 | < 250 µM | < 250 µM | O=C1O[C@H]([C@@H](O)CO)C(O)=C1O [Ascorbic acid] |  |  | 
4 | < 50 µM | < 50 µM | O=C(O)c1cc(O)c(O)c(O)c1 [Gallic acid] |  |  | 
5 |  |  | CC[C@H]1OC(=O)[C@H](C)[C@@H](O[C@H]2C[C@@](C)(OC)[C@@H](O)[C@H](C)O2)[C@H](C)[C@@H](O[C@@H]2O[C@H](C)C[C@H](N(C)C)[C@H]2O)[C@](C)(O)C[C@@H](C)C(=O)[C@H](C)[C@@H](O)[C@]1(C)O [Erythromycin, reference compound] | 4.3 ± 0.3 cm | 3.6 ± 0.4 | inhibition diameter (Streptomyces (NA 2B3); Table 3, 10%): 2.2 ± 0.3 cm; inhibition diameter (Streptomyces (NA 2B3); Table 3, 20%): 3.6 ± 0.4 cm; inhibition diameter (Streptomyces (NA 2B3); Table 5, 10%): 3.5 ± 0.5 cm; Average inhibition diameters ([1]; Table 4, 10%): 3.2 ± 0.4 cm; Average inhibition diameters ([1]; Table 4, 20%): 3.6 ± 0.4 cm; Average inhibition diameters ([1]; Table 6, 10%): 3.2 ± 0.4
6 |  |  | C=CCc1ccc(O)c(OC)c1 [Eugenol] |  | 2.9 ± 0.7 | anti-laccase activity (in words) [2]: anti-laccase activity was observed
7 | < 100 µM | < 50 µM | COc1cc(/C=C/C(=O)O)ccc1O [Ferulic acid] |  |  | 
8 |  |  | Cc1ccc(C(C)C)cc1O [Carvacrol] | 2.2 ± 0.3 cm | 2.4 ± 0.3 | 
9 | < 250 µM | < 100 µM | COc1cc(C(=O)O)cc(OC)c1O [Syringic acid] |  |  | 
10 | < 250 µM | < 250 µM | N[C@@H](CS)C(=O)O [L-Cysteine] |  |  | inhibition of laccase activity ([2]; at concentrations above 0.5 mM (FIG. 1)): more than 80%

Row | Compound | IC50 (laccase [3]) | IC50 (laccase [4]) | inhibition diameter (Streptomyces (NA 2B3); Table 5, 20%) | Average inhibition diameters ([1]; Table 6, 20%) | also measured
11 | O=S(O)(O)=S [Sodium thiosulfate] | < 250 µM | < 250 µM |  |  | 
